Test results: patent publication EP0437336B1, “Biophosphoryl hydrazines and their use as pesticides” (priority 1990, dated 1991)
In brackets after ≈: the same amount, converted by molar mass. Where two headings read alike, the source gives them in different places.

Assays:
Two-Spotted Spider Mite = assay: Biological Method D: Foliar Insecticidal Activity Test, mite test; assay type: in vivo, Tetranychus urticae; set-up: key to LC50 TSM: I = inactive at concentration listed; conditions: Method D foliar test, Two-Spotted Spider Mite; for LC50: Tetranychus urticae, read-out: LC50 TSM
Protocol: (§1) Biological Method D: Foliar Insecticidal Activity Test
(§2) In evaluating the foliar insecticidal activity of the compounds of this invention against insects and mites, the following test procedures were employed.
(§3) Not all compounds were tested at each of the several concentrations stated above. Test concentrations of a compound were selected as those most likely to differentiate dose response of a particular compound toward a particular test insect.
(§4) Initial evaluations were made on one or more of the following pests:
For the mite test, infested bean (Phaseolus limensis var. Woods Prolific) leaf discs [3.18 cm (1.25") in diameter] containing about 50 mites were placed in a Petri dish lid on a moistened piece of cotton. The leaves were then sprayed to thorough wetness with the test solution using a rotating turntable, held for twenty-four hours and then the percentage killed was determined.
(§5) The mortalities obtained in this manner were plotted on logarithmic probability paper.
(§6) The rotating turntable consists of a fixed, continuously operating spray nozzle under which targets are rotated at a fixed speed and distance. If the target is a Petri dish (such as for the bean beetle, armyworm, mite, or aphid tests), the distance from the nozzle is 38.1 cm (15 inches). If the target is a Mason jar (such as for the boll weevil test), the distance from the nozzle is 17.8 cm (7 inches). The nozzle is located 8 inches from the rotating shaft. The targets on individual platforms revolve around the shaft at 1 revolution per 20 seconds but only a brief portion of this time occurs in the spray path. Targets pass only once under the nozzle and then are removed to drying hoods.
(§7) The nozzle used is a 1/4 JCO Spraying Systems (Wheaton, Illinois) air atomizing nozzle equipped with a No. 2850 fluid cap and a No. 70 air cap. At the 68.95 x 10³ Pa gauge (10 psig) air pressure used and with liquid siphon feed, 1.89 ℓ/hr [0.5 GPH (gallons per hour)] are delivered in a round spray pattern with a 21 degree spray angle. Targets are misted with spray droplets to the point that the droplets coalesce to form a uniform thin film insufficient to drown test organisms.

Mexican Bean Beetle = assay: Biological Method D: Foliar Insecticidal Activity Test, Mexican Bean Beetle test; assay type: in vivo, Epilachna varivestis; set-up: key to LC50 BB 96 hrs / LC50 BB 48 hrs.: I = inactive at concentration listed; conditions: Mexican Bean Beetle; for LC50: Epilachna varivestis
Protocol: as §1, §2, §3, §4
(§8) For the Mexican Bean Beetle and Southern armyworm tests, individual lima bean (Phaseolus limeniss var. Woods' Prolific) leaves were placed on moistened pieces of filter paper in Petri dishes. The leaves were then sprayed with the test solution using a rotating turntable and allowed to dry. The dishes were then infested with 10 third instar larvae of either the Mexican Been Beetle or the Southern Armyworm. The dishes were then covered. Percent mortality was determined for each species and spray concentration at 48 and 96 hours after treatment.
as §5, §6, §7

Green Peach Aphid = assay: Biological Method D: Foliar Insecticidal Activity Test, aphid test; assay type: in vivo, Myzus persicae; set-up: key: I = inactive at concentration listed
Protocol: as §1, §2, §3, §4
For the aphid test, infested broccoli (Brassica oleracea italica var. DiCicco) leaves containing about 50 aphids were placed in a Petri dish lid on a moistened piece of cotton. The leaves were then sprayed to thorough wetness with the test solution using a rotating turntable, held for twenty-four hours and then the percentage killed was determined.
as §5, §6, §7

[1] = test system: southern corn rootworm, Diabrotica undecimpunctata howardi; assay: Biological Method A: Corn Rootworm Screening Test (treated non-aggressive soil); conditions: soil concentration giving 90% mortality, 10 days at 27°C
Boll Weevil [2] = assay: Biological Method D: Foliar Insecticidal Activity Test, boll weevil test; assay type: in vivo, Anthonomous grandis; conditions: Method D foliar test, Boll Weevil
Protocol: as §1, §2, §3, §4
(§9) For the boll weevil test, 10 adult weevils were placed in a 0.24 ℓ (0.5 pint) glass Mason jar containing a small cube of apple. The weevils were confined to the jar by fiberglass screen mesh secured by a screw-type rim cap. The jars were then sprayed with the test solution using a rotating turntable; directing the spray through the mesh into the jar. The percentage killed was determined after forty-eight and ninety six hours.
as §5, §6, §7

Southern Armyworm = assay: Biological Method D: Foliar Insecticidal Activity Test, Southern Armyworm test; assay type: in vivo, Spodoptera eridania; set-up: key: I = inactive at concentration listed
Protocol: as §1, §2, §3, §4, §8, §5, §6, §7

Boll Weevil [3] = assay: Biological Method D: Foliar Insecticidal Activity Test, boll weevil test; assay type: in vivo, Anthonomous grandis; set-up: key: I = inactive at concentration listed
Protocol: as §1, §2, §3, §4, §9, §5, §6, §7

[4] = Method D foliar test, 48 hrs, read-out: LC50 BB 48 hrs.
[5] = Method D foliar test, 96 hrs, read-out: LC50 BB 96 hrs

| Compound | LC50 TSM (Two-Spotted Spider Mite) | LC50 BB 48 hrs. (Mexican Bean Beetle; Method D foliar test, 48 hrs) | LC50 BB 96 hrs (Mexican Bean Beetle; Method D foliar test, 96 hrs) | LC50 GPA (Green Peach Aphid) | primary nonagressive Method A crw LC90 [1] | LC50 BW 48 hrs (Boll Weevil [2]) | LC50 BW 96 hrs (Boll Weevil [2]) | LC50 AW 48 hrs (Southern Armyworm) | LC50 AW 96 hrs (Southern Armyworm) | LC50 BW 48 hrs (Boll Weevil [3]) | LC50 BW 96 hrs (Boll Weevil [3]) | LC50 (Mexican Bean Beetle; [4]) | LC50 (Mexican Bean Beetle; [5]) | LC50 (Two-Spotted Spider Mite) | LC50 (Mexican Bean Beetle; foliar, 48 hrs, compounds a-r, read-out: LC 50 BB 48 hrs.) | LC50 (Mexican Bean Beetle; foliar, 96 hrs, compounds a-r, read-out: LC 50 BB 96 hrs.) |
| --- | --- | --- | --- | --- | --- | --- | --- | --- | --- | --- | --- | --- | --- | --- | --- | --- |
| CCOP(=S)(NNP(=S)(OCC(C)(C)C)OCC(C)(C)C)OCC [Compound 59, reference compound] | I | I | I | I | I | 740 ppm | 740 ppm | I | I |  |  |  |  |  |  |  |
| CCOP(=O)(NNP(=S)(OCC)OCC)SCC (stereo not drawn) [Compound 21] | I |  |  | I | 4.7 ppm |  |  | I | I | I | I |  |  |  |  |  |
| CCOP(=S)(NNP1(=S)N(C)CCN1C)OCC [Compound 3] | I |  |  | I | 4.5 ppm |  |  | I | I | I | I |  |  |  |  |  |
| CCOP(=S)(NNP(=S)(OCC)N1CCCC1)OCC (stereo not drawn) [Compound 60] | I | I | I | I | 1.1 ppm |  |  | I | I | I | I |  |  |  |  |  |
| CCOP(=S)(NNP(=S)(OCC)N1CCCCC1)OCC (stereo not drawn) [Compound 62] | I | I | I | I | 1.1 ppm |  |  | I | I | I | I |  |  |  |  |  |
| CCOP(=O)(NNP(=S)(OCC)OC(C)CC)SC(C)CC (stereo not drawn) [Compound 56] | I |  |  | I | 1.1 ppm |  |  | I | I | I | I | 380 µg/mL (≈ 968 µM) | 31 µg/mL (≈ 79 µM) |  |  |  |
| CCOP(=O)(NNP(=S)(OCC)OCC)SC(C)CC (stereo not drawn) [Compound 53] | I | I | I | I | 1.6 ppm | 740 ppm | 740 ppm | I | I |  |  |  |  |  |  |  |
| CCCOP(=S)(NNP(=O)(OCC)SCC)OCCC (stereo not drawn) [Compound 22] | I |  |  | I | I |  |  | I | I | I | I | 150 µg/mL (≈ 412 µM) | 115 µg/mL (≈ 316 µM) |  |  |  |
| CCOP(=S)(NNP1(=S)OCC(C)(C)CO1)OCC [Compound 61] | I | I | I | I | 1.1 ppm | 740 ppm | 740 ppm | I |  |  |  |  |  |  |  |  |
| CCOP(=S)(NNP(=S)(OCC)SCC)OCC (stereo not drawn) [Compound 26] |  |  |  | I | 1.1 ppm |  |  | I | I | I | I | 150 µg/mL (≈ 426 µM) | 150 µg/mL (≈ 426 µM) | 640 µg/mL (≈ 1820 µM) |  |  |
| CCCNP(=S)(NNP(=S)(OCCC)OCCC)OCC (stereo not drawn) [Compound 25] | I |  |  | I | 2.5 ppm |  |  | I | I | I | I | 38 µg/mL (≈ 101 µM) | 13 µg/mL (≈ 34.4 µM) |  |  |  |
| CCOP(=S)(NNP(=S)(OC)OC)OCC [Compound 36, reference compound] |  | I |  | I | 0.90 ppm |  |  | I | I | I | I |  | 600 µg/mL (≈ 1950 µM) | 79 µg/mL (≈ 256 µM) |  |  |
| CCCOP(=S)(NNP(=S)(OC)OC)OCCC [Compound 37, reference compound] |  |  |  | I | 1.7 ppm |  |  | I | I | I | I | 150 µg/mL (≈ 446 µM) | 62 µg/mL (≈ 184 µM) | 450 µg/mL (≈ 1340 µM) |  |  |
| CCOP(=S)(NN(C)P(=S)(OCC)OCC)OC(C)C (stereo not drawn) [p] |  |  |  |  |  |  |  |  |  |  |  |  |  |  | 270 µg/mL (≈ 741 µM) | 78 µg/mL (≈ 214 µM) |
| COP(=S)(NNP(=S)(OC)OC)OC [Compound 42, reference compound] |  |  | I | I | I |  |  | I | I | I | I | 600 µg/mL (≈ 2140 µM) |  | 150 µg/mL (≈ 535 µM) |  |  |
| CCOP(=S)(NNP(=S)(OCC)OC(C)(C)C(F)(F)F)OCC (stereo not drawn) [Compound 40] |  |  |  | I | 1.0 ppm |  |  | I | I | I | I | 38 µg/mL (≈ 90.8 µM) | 45 µg/mL (≈ 108 µM) | 150 µg/mL (≈ 359 µM) |  |  |
